# Peptide text beside a SMILES is read from it.
# Experiments:
# [1] = Hemolytic activity in sheep RBC; format: toxicity, cell-based, Ovis aries, Erythrocyte; conditions: sheep red blood cells
# [2] = Therapeutic index, ratio of HC50 for human RBC to MIC for antibacterial activity against methicillin-sensitive Staphylococcus aureus ATCC 29213 clinical isolate; format: toxicity, cell-based; conditions: pooled result: one value given for 2 cell lines, strains, targets or settings, read-out: TI
# [3] = Retention time of the compound by RP-HPLC analysis; format: physicochemical
# [4] = Nephrotoxicity against HEK293 cells assessed as cell viability incubated for 24 hrs by MTT assay; format: toxicity, cell-based; conditions: human
# Staphylococcus aureus [5] = experiment: Antibacterial activity against methicillin-sensitive Staphylococcus aureus ATCC 29213 clinical isolate assessed as bacterial growth inhibition at 256 to 0.125 ug/ml in CAMH broth medium incubated for 16 to 20 hrs by broth microdilution method; format: functional; conditions: dose 256-0.125 µg/ml, time 16-20 hrs
# [6] = Hemolytic activity in human RBC assessed as hemolysis incubated for 1 hr by absorbance based assay; format: toxicity, cell-based, Erythrocyte; conditions: human red blood cells
# Staphylococcus aureus [7] = experiment: Antibacterial activity against methicillin-resistant Staphylococcus aureus ATCC USA 300 clinical isolate assessed as bacterial growth inhibition at 256 to 0.125 ug/ml in CAMH broth medium incubated for 16 to 20 hrs by broth microdilution method; format: functional; conditions: dose 256-0.125 µg/ml, time 16-20 hrs
SMILES,HC50 [1],selectivity ratio [2],Retention_time [3],IC50 at 24 h [4],MIC (Staphylococcus aureus [5]),HC50 at 1 h [6],MIC (Staphylococcus aureus [7])
"CC(C)C[C@@H]1NC(=O)[C@H](CCCN)NC(=O)[C@H](C(C)C)NC(=O)[C@@H]2CCCN2C(=O)[C@@H](Cc2ccccc2)NC(=O)[C@H](CC(C)C)NC(=O)[C@H](CCCN)NC(=O)[C@H](C(C)C)NC(=O)[C@@H]2CCCN2C(=O)[C@@H](CCCNC(=N)N)NC1=O (HELM PEPTIDE1{L.[dF].P.V.[Orn].L.[dR].P.V.[Orn]}$PEPTIDE1,PEPTIDE1,1:R1-10:R2$$$V2.0)",> 115 µg/mL,4.9,16.22 min,18.7 mg/L,8 mg/L,39.2 µg/mL,8 mg/L
"CC(C)C[C@@H]1NC(=O)[C@H](CCCN)NC(=O)[C@H](C(C)C)NC(=O)[C@H](Cc2c[nH]c3ccccc23)NC(=O)[C@@H](Cc2c[nH]c3ccccc23)NC(=O)[C@H](CC(C)C)NC(=O)[C@H](CCCN)NC(=O)[C@H](C(C)C)NC(=O)[C@H](Cc2c[nH]c3ccccc23)NC(=O)[C@@H](Cc2ccccc2)NC1=O (HELM PEPTIDE1{L.[dF].W.V.[Orn].L.[dW].W.V.[Orn]}$PEPTIDE1,PEPTIDE1,1:R1-10:R2$$$V2.0)",,0.58,18.68 min,4.07 mg/L,64 mg/L,37.2 µg/mL,64 mg/L
"CC(C)C[C@@H]1NC(=O)[C@H](CCCN)NC(=O)[C@H](C(C)C)NC(=O)[C@@H]2CCCN2C(=O)[C@@H](CCCNC(=N)N)NC(=O)[C@H](CC(C)C)NC(=O)[C@H](CCCN)NC(=O)[C@H](C(C)C)NC(=O)[C@H](Cc2c[nH]c3ccccc23)NC(=O)[C@@H](Cc2ccccc2)NC1=O (HELM PEPTIDE1{L.[dF].W.V.[Orn].L.[dR].P.V.[Orn]}$PEPTIDE1,PEPTIDE1,1:R1-10:R2$$$V2.0)",,6.38,16.5 min,11.3 mg/L,5 mg/L,31.9 µg/mL,5 mg/L
"CC(C)C[C@@H]1NC(=O)[C@H](CCCN)NC(=O)[C@H](C(C)(C)C)NC(=O)[C@@H]2CCCN2C(=O)[C@@H](Cc2ccccc2)NC(=O)[C@H](CC(C)C)NC(=O)[C@H](CCCN)NC(=O)[C@H](C(C)C)NC(=O)[C@@H]2CCCN2C(=O)[C@@H](Cc2ccccc2)NC1=O (HELM PEPTIDE1{L.[dF].P.[CC(C)(C)[C@H](N[*:1])C(=O)[*:2]].[Orn].L.[dF].P.V.[Orn]}$PEPTIDE1,PEPTIDE1,1:R1-10:R2$$$V2.0)",,1.87,19.38 min,5.46 mg/L,4 mg/L,7.49 µg/mL,4 mg/L
CC(C)C[C@@H]1NC(=O)[C@H](CCCN)NC(=O)[C@H](C(C)(C)C)NC(=O)[C@@H]2CCCN2C(=O)[C@@H](CCCNC(=N)N)NC(=O)[C@H](CC(C)C)NC(=O)[C@H](CCCN)NC(=O)[C@H](C(C)C)NC(=O)[C@@H]2CCCN2C(=O)[C@@H](Cc2ccccc2)NC1=O,,7.21,16.79 min,38.1 mg/L,7 mg/L,50.5 µg/mL,7 mg/L
"CC(C)C[C@@H]1NC(=O)[C@H](CCCN)NC(=O)[C@H](C(C)C)NC(=O)[C@H](Cc2c[nH]c3ccccc23)NC(=O)[C@@H](Cc2ccccc2)NC(=O)[C@H](CC(C)C)NC(=O)[C@H](CCCN)NC(=O)[C@H](C(C)C)NC(=O)[C@H](Cc2c[nH]c3ccccc23)NC(=O)[C@@H](CCCNC(=N)N)NC1=O (HELM PEPTIDE1{L.[dF].W.V.[Orn].L.[dR].W.V.[Orn]}$PEPTIDE1,PEPTIDE1,1:R1-10:R2$$$V2.0)",,3.93,16.6 min,5.36 mg/L,5 mg/L,19.6 µg/mL,5 mg/L
"CC(C)C[C@@H]1NC(=O)[C@H](CCCN)NC(=O)[C@H](C(C)C)NC(=O)[C@@H]2CCCN2C(=O)[C@@H](Cc2ccccc2)NC(=O)[C@H](CC(C)C)NC(=O)[C@H](CCCN)NC(=O)[C@H](C(C)C)NC(=O)[C@H](Cc2c[nH]c3ccccc23)NC(=O)[C@@H](Cc2ccccc2)NC1=O (HELM PEPTIDE1{L.[dF].P.V.[Orn].L.[dF].W.V.[Orn]}$PEPTIDE1,PEPTIDE1,1:R1-10:R2$$$V2.0)",,2.26,18.78 min,5.07 mg/L,4 mg/L,9.04 µg/mL,4 mg/L
CC(C)C[C@@H]1NC(=O)[C@H](CCCN)NC(=O)[C@H](C(C)(C)C)NC(=O)[C@@H]2CCCN2C(=O)[C@@H](Cc2ccccc2)NC(=O)[C@H](CC(C)C)NC(=O)[C@H](CCCN)NC(=O)[C@H](C(C)C)NC(=O)[C@@H]2CCCN2C(=O)[C@@H](CCCNC(=N)N)NC1=O,,10,16.8 min,19.5 mg/L,6 mg/L,60.2 µg/mL,6 mg/L
"CC(C)C[C@@H]1NC(=O)[C@H](CCCN)NC(=O)[C@H](C(C)C)NC(=O)[C@@H]2CCCN2C(=O)[C@@H](Cc2ccccc2)NC(=O)[C@H](CC(C)C)NC(=O)[C@H](CCCN)NC(=O)[C@H](C(C)C)NC(=O)[C@@H]2CCCN2C(=O)[C@@H](Cc2ccccc2)NC1=O [GRAMICIDIN S] (HELM PEPTIDE1{L.[dF].P.V.[Orn].L.[dF].P.V.[Orn]}$PEPTIDE1,PEPTIDE1,1:R1-10:R2$$$V2.0)",,3.09,18.57 min,6.45 mg/L,4 mg/L,12.3 µg/mL,4 mg/L
"CC(C)C[C@@H]1NC(=O)[C@H](CCCN)NC(=O)[C@H](C(C)C)NC(=O)[C@@H]2CCCN2C(=O)[C@@H](Cc2ccccc2)NC(=O)[C@H](CC(C)C)NC(=O)[C@H](CCCN)NC(=O)[C@H](C(C)C)NC(=O)[C@H](Cc2c[nH]c3ccccc23)NC(=O)[C@@H](CCCNC(=N)N)NC1=O (HELM PEPTIDE1{L.[dF].P.V.[Orn].L.[dR].W.V.[Orn]}$PEPTIDE1,PEPTIDE1,1:R1-10:R2$$$V2.0)",,6.56,16.56 min,13.6 mg/L,5 mg/L,32.8 µg/mL,5 mg/L
"CC(C)C[C@@H]1NC(=O)[C@H](CCCN)NC(=O)[C@H](C(C)C)NC(=O)[C@@H]2CCCN2C(=O)[C@@H](Cc2ccccc2)NC(=O)[C@H](CC(C)C)NC(=O)[C@H](CCCN)NC(=O)[C@H](C(C)C)NC(=O)[C@H](Cc2c[nH]c3ccccc23)NC(=O)[C@@H](Cc2c[nH]c3ccccc23)NC1=O (HELM PEPTIDE1{L.[dF].P.V.[Orn].L.[dW].W.V.[Orn]}$PEPTIDE1,PEPTIDE1,1:R1-10:R2$$$V2.0)",,1.46,18.78 min,4.64 mg/L,4 mg/L,5.85 µg/mL,4 mg/L

# — ChEMBL document CHEMBL6074682, “Expanding the therapeutic window of gramicidin S towards a safe and effective systemic treatment of methicillin-resistant S. aureus infections” (Eur J Med Chem, 2025)
